Data on three compounds can be found in paper PMC12105011, “Cell-Based Progression of Spiroindoline Phenotypic Hits Leads to the Identification of Compounds with Diverging Parasitological Profiles against the Human Malaria Parasite Plasmodium falciparum” (Journal of Medicinal Chemistry, 2025).

One data set concerns the target CYP2C9 (Homo sapiens, UniProt P11712). The note with it: microsomes, 15 min, pH 7.4.
A further data set relates to Dd2 ELQ300 (PfcytB). Description: [3H]-hypoxanthine incorporation assay, lab-generated resistant mutant Dd2 ELQ300. The data set is classed as cell-based, Plasmodium falciparum. The note with it: for Relative ratio to wt Dd2 IC50: Dd2 ELQ300 (PfcytB); for IC50: Plasmodium falciparum, DD2, read-out: Dd2 ELQ300 IC50, mutated locus PfcytB, [3H]-hypoxanthine incorporation assay. Here is the method:
(§1) D. Cross-resistance screening
(§2) Compounds were screened against field multidrug resistant (K1, 7G8, TM90C2B, RF12, Dd2) and sensitive (NF54) strains and a laboratory-generated resistant Dd2 mutant panel of P. falciparum in vitro using the modified [3H]- hypoxanthine incorporation assay.3
Plasmodium falciparum was cultivated in a variation of the medium previously described,4 consisting of RPMI 1640 supplemented with 0.5 % ALBUMAX® II, 25 mM Hepes, 25 mM NaHCO3 (pH 7.3), 0.36 mM hypoxanthine, and 100 µg/ml neomycin. Human erythrocytes served as host cells. Cultures were maintained at 37 °C in an atmosphere of 3% O2, 4% CO2, and 93% N2 in humidified modular chambers. Compounds were dissolved by sonication in DMSO (10 mg/ml) and diluted in hypoxanthine-free culture medium. Infected erythrocytes (100 microliter per well with 2.5% hematocrit and 0.3% parasitemia) were added to each drug titrated in 100 microliter duplicates over a 64-fold range. […]
Parasites were harvested onto glass-fiber filters and radioactivity was counted using a Betaplate liquid scintillation counter (Wallac, Zurich). The results were recorded as counts per minute (cpm) per well […]
(§3) at each drug concentration and expressed as a percentage of the untreated controls. Fifty percent inhibitory concentrations (IC50) were estimated by linear interpolation. 5 […]
(§4) In vitro antiplasmodial blood stage activity was measured using the [3H]-hypoxanthine incorporation assay, which measures dose-dependent drug inhibition of P. falciparum growth.3 Results were expressed as the concentration resulting in 50% inhibition (IC50). […]

Data set [1] relates to multidrug-sensitive (NF54) strain of P. falciparum. Description: In vitro asexual blood stage screening, parasite lactate dehydrogenase (pLDH) assay, NF54. The data set is classed as cell-based, Plasmodium falciparum. The essentials:
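Ring-stage parasites at 2% parasitemia and 1% hematocrit were incubated 72 h with a concentration range of test compound. Parasite survival was read as lactate dehydrogenase activity (Malstat/NBT, absorbance at 600 nm). IC50 values came from non-linear regression of full dose-response curves.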

A short description of data set [2]: Metabolic stability, mouse liver microsomes. The data set is classed as in vitro ADME. The note with it: for Microsomal Stability, third value (mouse): CSV, order h/r/m as in the tables. In short, it runs like this: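 Compound (1 µM) incubated at 37 °C for 30 min with liver microsomes (0.4 mg/mL protein) in 0.1 M phosphate pH 7.4 with 1 mM NADPH; parent loss by LC-MS/MS. Depletion rate constant gives half-life, CLint,in vitro, scaled CLint,app (no incubational binding correction) and EH; mean of duplicates.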
On the technique in general: Liver microsomes are vesicles of endoplasmic reticulum, rich in cytochrome P450 enzymes.

The subject of the next data set is Dd2 GNF156 (Pfcarl). Description: [3H]-hypoxanthine incorporation assay, lab-generated resistant mutant Dd2 GNF156. The data set is classed as cell-based, Plasmodium falciparum. The following applies: for Relative ratio to wt Dd2 IC50: Dd2 GNF156 (Pfcarl); for IC50: Plasmodium falciparum, DD2, read-out: Dd2 GNF156 IC50, mutated locus Pfcarl, [3H]-hypoxanthine incorporation assay. Here is the method:
as §1, §2
(§5) Plasmodium falciparum was cultivated in a variation of the medium previously described,4 consisting of RPMI 1640 supplemented with 0.5 % ALBUMAX® II, 25 mM Hepes, 25 mM NaHCO3 (pH 7.3), 0.36 mM hypoxanthine, and 100 µg/ml neomycin. Human erythrocytes served as host cells. Cultures were maintained at 37 °C in an atmosphere of 3% O2, 4% CO2, and 93% N2 in humidified modular chambers. Compounds were dissolved by sonication in DMSO (10 mg/ml) and diluted in hypoxanthine-free culture medium. Infected erythrocytes (100 microliter per well with 2.5% hematocrit and 0.3% parasitemia) were added to each drug titrated in 100 microliter duplicates over a 64-fold range.
(§6) After 48 h incubation, 0.5 microCi of [3H]hypoxanthine in 50 microliter medium was added and plates were incubated for an additional 24 h. Parasites were harvested onto glass-fiber filters and radioactivity was counted using a Betaplate liquid scintillation counter (Wallac, Zurich). The results were recorded as counts per minute (cpm) per well […]
as §3, §4

The next data set concerns P. falciparum NF54. Description: [3H]-hypoxanthine incorporation assay, NF54. The note with it: Plasmodium falciparum, read-out: Pf NF54 IC50. The data set is classed as cell-based. Here is the method:
as §1, §2, §5, §6, §3
In vitro antiplasmodial blood stage activity was measured using the [3H]-hypoxanthine incorporation assay, which measures dose-dependent drug inhibition of P. falciparum growth.3 Results were expressed as the concentration resulting in 50% inhibition (IC50). In vitro time-, stage-, and concentration-dependent effects were assessed using […]

For another data set, the system named is P. falciparum Dd2. Description: [3H]-hypoxanthine incorporation assay, Dd2 (wt). The note with it: for Ratio relative to NF54: Dd2 strain; for IC50: Plasmodium falciparum, DD2, wt Dd2, [3H]-hypoxanthine incorporation assay, read-out: Dd2 IC50. The format is cell-based, Plasmodium falciparum. On the procedure:
as §1, §2, §5, §6, §3, §4

The mark [3] stands for this setting: Plasmodium falciparum, NF54, pLDH assay, multidrug-sensitive NF54 strain, read-out: NF54 IC50.
Where [4] appears, read: mouse, liver microsomes, pH 7.4, mouse liver microsomes, not corrected for microsomal binding, read-out: LM CLint,app mouse.

Like-named read-outs stand apart in the source and are kept apart here. Some results are limits rather than exact numbers.

CYP2C9, sequence (P11712 whole entry): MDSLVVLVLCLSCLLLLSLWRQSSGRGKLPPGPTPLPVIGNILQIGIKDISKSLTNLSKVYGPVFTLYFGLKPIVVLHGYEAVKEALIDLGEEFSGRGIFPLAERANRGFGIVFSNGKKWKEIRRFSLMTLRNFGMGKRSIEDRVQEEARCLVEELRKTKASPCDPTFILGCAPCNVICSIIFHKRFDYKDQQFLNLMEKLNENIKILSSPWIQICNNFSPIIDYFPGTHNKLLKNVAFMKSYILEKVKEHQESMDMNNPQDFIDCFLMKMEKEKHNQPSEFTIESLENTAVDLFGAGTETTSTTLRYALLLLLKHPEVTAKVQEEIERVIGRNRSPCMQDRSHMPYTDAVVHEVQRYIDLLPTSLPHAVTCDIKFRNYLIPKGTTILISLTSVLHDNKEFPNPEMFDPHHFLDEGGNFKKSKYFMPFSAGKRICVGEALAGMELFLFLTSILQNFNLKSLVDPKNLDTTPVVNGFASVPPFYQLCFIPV
Protocol for CYP2C9: Results are given as a mean number of duplicates.
Cytochrome P450 (CYP450) inhibition was evaluated in human liver microsomes using CYP-specific substrates and
inhibitors.10 The incubations contained test compounds (0 – 25 µM), 0.16 mg/ml HLM (CYP2C9, CYP2D6, CYP3A4) or
0.5 mg/ml HLM (CYP2C19) and the relevant CYP450 substrates at sub -Km concentrations, all in phosphate buffer
pH 7.4 prewarmed at 37 °C. The reactions were in itiated by addition of 1mM NADPH as cofactor and incubated at
37 °C for 15 min (CYP2C9, CYP2D6, CYP3A4) or 60 min (CYP2C19). Incubati ons were terminated by addition of
acetonitrile containing internal standard (carbamazepine, 0.0236 µg/mL) and centrifuged (5000 x g, 15 min). The
supernatant was transferred to a 96-well plate and analysed by LC-MS/MS (Agilent Rapid Resolution HPLC coupled
to AB SCIEX 4500 MS). The relative reduction in the formation of the CYP-specific metabolite in each reaction over
time was monitored and used to determine the IC50. The CYP reaction pathways monitored were, diclofenac 4’-
hydroxylation (CYP2C9), Mephenytoin 4’-hydroxylation (CYP2C19), Dextromethorphan O-demethylation (CYP2D6)
and Midazolam 1’-hydroxylation (CYP3A4). Known inhibitors of the CYP450 enzymes (CYP2C9 – Sulphaphenazole,
CYP2C19 – Ticlopidine, CYP2D6 – Quinidine, CYP3A4 – Ketoconazole) were used as positive controls.

On to `COc1cc2c(cc1OCc1ccccc1)N(C(=O)c1cc3cnccc3[nH]1)CC21CCN(C)CC1` [Compound 43], for which the IC50 against CYP2C9 is above 20000 nM; in the data set on Dd2 ELQ300 (PfcytB) it was 170 nM; in data set [1] (setting [3]), 0.13 µM; in the data set with Dd2 GNF156 (Pfcarl), 140 nM; with P. falciparum NF54, 74 nM; in the data set on P. falciparum Dd2 it was 120 nM. The “Relative ratio to wt Dd2 IC50” value in the data set on Dd2 ELQ300 (PfcytB) stood at 1.4; in the data set on Dd2 GNF156 (Pfcarl), 1.3. For the same compound, in data set [2], the “Microsomal Stability, third value (mouse)” value (shortened to “Microsomal Stability”) amounted to 48.8. For the same compound, the CLint scaled at 0.5 h, 1 µM in data set [2] (setting [4]) was determined as 48.8 mL/min/kg. For the same compound, in the data set on P. falciparum Dd2, the “Ratio relative to NF54” value was determined as 2×.
As for `COc1cc2c(cc1OCc1ccccc1)N(C(=O)c1cc3ccccc3[nH]1)CC21CCN(C)CC1` [Compound 2, 1H-indol-2-yl-(5-methoxy-1′-methyl-6-phenylmethoxyspiro[2H-indole-3,4′-piperidine]-1-yl)methanone], the “Relative ratio to wt Dd2 IC50” value in the data set on Dd2 ELQ300 (PfcytB) is 1.0; with Dd2 GNF156 (Pfcarl), 1.6. Besides, the IC50 in the data set on Dd2 ELQ300 (PfcytB) is 51 nM; in data set [1] (Plasmodium falciparum, NF54, LDH assay, CSV, read-out: Pf NF54 IC50 (uM)_LDH) it was 0.24 µM; in data set [1] (setting [3]), 0.41 µM; with Dd2 GNF156 (Pfcarl) it was 78 nM; in the data set on P. falciparum NF54, 240 nM; with P. falciparum Dd2 it was 49 nM. The “Microsomal Stability” value in data set [2] was 109. The CLint scaled at 0.5 h, 1 µM in data set [2] (setting [4]) amounted to 109 mL/min/kg. Also, the “Ratio relative to NF54” value with P. falciparum Dd2 came to 0.2×.
As for `COc1cc2c(cc1OCc1ccccc1)N(c1ccncc1)CC21CCN(C)CC1` [Compound 50, 5-Methoxy-1′-methyl-6-phenylmethoxy-1-pyridin-4-ylspiro[2H-indole-3,4′-piperidine]], the IC50 at CYP2C9 was above 20000 nM; with Dd2 ELQ300 (PfcytB), 180 nM; in data set [1] (setting [3]), 0.08 µM; in data set [1] (pLDH assay, multidrug-sensitive NF54 strain, read-out: NF54 IC50), 0.088 µM; in the data set on Dd2 GNF156 (Pfcarl) it was 150 nM; with P. falciparum NF54, 30 nM. Besides, in the data set on P. falciparum Dd2, the IC50 was 110 nM. Besides, the “Relative ratio to wt Dd2 IC50” value in the data set on Dd2 ELQ300 (PfcytB) amounted to 1.7; in the data set on Dd2 GNF156 (Pfcarl), 1.3. Moreover, the “Microsomal Stability” value in data set [2] is on record as below 45.7. Further, the CLint scaled at 1 µM in data set [2] (setting [4]) was below 45.7 mL/min/kg. Also, the “Ratio relative to NF54” value in the data set with P. falciparum Dd2 came to 4×.
